Source: PubChem BioAssay AID1963442 (Molecular Pharmacology Branch, DTP, NCI, 2024)
Where “and” joins values, the source holds several entries; their conditions need not be identical. Equal entries are not always repeated.

Tested on: MPNST complex spheroid with HUVEC/MSC, growth, % test/control
Experiment: Anticancer human tumor MPNST cell line growth inhibition [Asc];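 also: compounds left on spheroids for seven days before reading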
Settings: for viability, T/C: stronger effect = lower value; active = viability on the fitted dose curve at most 10% of control; inactive = the rest
Outline: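 Complex solid-tumor spheroids incorporating human endothelial and mesenchymal stem cells received single agents or combinations over half-log dilution ranges anchored to clinical Cmax.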

[1] = curve of first compound, second compound 0.1 µM
[2] = curve of first compound, second compound 0.316 µM
[3] = curve of first compound, second compound 1 µM

NC(=O)C(=Cn1cnc(-c2cc(C(F)(F)F)cc(C(F)(F)F)c2)n1)c1cncnc1 + Cc1c(S(C)(=O)=O)c(-c2cc(F)cc(N3CCN(c4ccc(NS(=O)(=O)c5ccc(NC(CCN6CCC(C(=O)OCCCP(=O)(O)O)CC6)CSc6ccccc6)c(S(=O)(=O)C(F)(F)F)c5)cc4)CC3)c2)c(-c2ccc(Cl)cc2)n1C(C)C
172 nM: IC50 [2]
inactive: viability, T/C (second compound 0.1 µM, first compound 0.000949 µM) 56.9% | viability, T/C (second compound 0.1 µM, first compound 0.003 µM) 65.2% | viability, T/C (second compound 0.1 µM, first compound 0.00949 µM) 59% | viability, T/C (second compound 0.1 µM, first compound 0.03 µM) 80.2% | viability, T/C (second compound 0.1 µM, first compound 0.0949 µM) 66.9% | viability, T/C (second compound 0.1 µM, first compound 0.3 µM) 44.9% | viability, T/C (second compound 0.316 µM, first compound 0.000949 µM) 68.9% | viability, T/C (second compound 0.316 µM, first compound 0.003 µM) 80% | viability, T/C (second compound 0.316 µM, first compound 0.00949 µM) 74.3% | viability, T/C (second compound 0.316 µM, first compound 0.03 µM) 64.3% | viability, T/C (second compound 0.316 µM, first compound 0.0949 µM) 61.5% | viability, T/C (second compound 0.316 µM, first compound 0.3 µM) 40.6% | viability, T/C (second compound 1 µM, first compound 0.000949 µM) 78.6% | viability, T/C (second compound 1 µM, first compound 0.003 µM) 75.8% | viability, T/C (second compound 1 µM, first compound 0.00949 µM) 67.9% | viability, T/C (second compound 1 µM, first compound 0.03 µM) 54.4% | viability, T/C (second compound 1 µM, first compound 0.0949 µM) 50.6% | viability, T/C (second compound 1 µM, first compound 0.3 µM) 41.5% | viability, T/C (second compound 3.16 µM, first compound 0.000949 µM) 65.3% | viability, T/C (second compound 3.16 µM, first compound 0.003 µM) 78.5% | viability, T/C (second compound 3.16 µM, first compound 0.00949 µM) 70.1% | viability, T/C (second compound 3.16 µM, first compound 0.03 µM) 51.5% | viability, T/C (second compound 3.16 µM, first compound 0.0949 µM) 44.6% | viability, T/C (second compound 3.16 µM, first compound 0.3 µM) 39.3% | viability, T/C (second compound 10 µM, first compound 0.000949 µM) 73.3% | viability, T/C (second compound 10 µM, first compound 0.003 µM) 72.4% | viability, T/C (second compound 10 µM, first compound 0.00949 µM) 65.6% | viability, T/C (second compound 10 µM, first compound 0.03 µM) 58.4% | viability, T/C (second compound 10 µM, first compound 0.0949 µM) 48% | viability, T/C (second compound 10 µM, first compound 0.3 µM) 34.6%
37.4 nM: IC50 (curve of first compound, second compound 3.16 µM)
75.6 nM: IC50 (curve of first compound, second compound 10 µM)
> 300 nM: IC50 [1]
72 nM: IC50 [3]

CCN1CCN(Cc2ccc(Nc3ncc(F)c(-c4cc(F)c5nc(C)n(C(C)C)c5c4)n3)nc2)CC1 + CNC(C)C(=O)NC1CN(S(=O)(=O)c2cccc(S(=O)(=O)N3CCC4CCC(C(=O)NC(c5ccccc5)c5ccccc5)N4C(=O)C(NC(=O)C(C)NC)C3)c2)CCC2CCC(C(=O)NC(c3ccccc3)c3ccccc3)N2C1=O
> 1000 nM: IC50 (curve of first compound, second compound 0.00316 µM) | IC50 (curve of first compound, second compound 0.01 µM) | IC50 (curve of first compound, second compound 0.0316 µM) | IC50 [1] | IC50 [2] | IC50 [3]
inactive: viability, T/C (second compound 0.00316 µM, first compound 0.00316 µM) 80.7% | viability, T/C (second compound 0.00316 µM, first compound 0.01 µM) 58.2% | viability, T/C (second compound 0.00316 µM, first compound 0.0316 µM) 58.9% | viability, T/C (second compound 0.00316 µM, first compound 0.1 µM) 56.2% | viability, T/C (second compound 0.00316 µM, first compound 0.316 µM) 51.9% | viability, T/C (second compound 0.00316 µM, first compound 1 µM) 57.2% | viability, T/C (second compound 0.01 µM, first compound 0.00316 µM) 141% | viability, T/C (second compound 0.01 µM, first compound 0.01 µM) 83.2% | viability, T/C (second compound 0.01 µM, first compound 0.0316 µM) 102% | viability, T/C (second compound 0.01 µM, first compound 0.1 µM) 71.8% | viability, T/C (second compound 0.01 µM, first compound 0.316 µM) 61.2% | viability, T/C (second compound 0.01 µM, first compound 1 µM) 73% | viability, T/C (second compound 0.0316 µM, first compound 0.00316 µM) 94.5% | viability, T/C (second compound 0.0316 µM, first compound 0.01 µM) 92.9% | viability, T/C (second compound 0.0316 µM, first compound 0.0316 µM) 106% | viability, T/C (second compound 0.0316 µM, first compound 0.1 µM) 66.5% | viability, T/C (second compound 0.0316 µM, first compound 0.316 µM) 72.5% | viability, T/C (second compound 0.0316 µM, first compound 1 µM) 87.1% | viability, T/C (second compound 0.1 µM, first compound 0.00316 µM) 79.7% | viability, T/C (second compound 0.1 µM, first compound 0.01 µM) 74.2% | viability, T/C (second compound 0.1 µM, first compound 0.0316 µM) 75.3% | viability, T/C (second compound 0.1 µM, first compound 0.1 µM) 61.7% | viability, T/C (second compound 0.1 µM, first compound 0.316 µM) 60.7% | viability, T/C (second compound 0.1 µM, first compound 1 µM) 82.7% | viability, T/C (second compound 0.316 µM, first compound 0.00316 µM) 86.5% | viability, T/C (second compound 0.316 µM, first compound 0.01 µM) 69.8% | viability, T/C (second compound 0.316 µM, first compound 0.0316 µM) 106% | viability, T/C (second compound 0.316 µM, first compound 0.1 µM) 104% | viability, T/C (second compound 0.316 µM, first compound 0.316 µM) 71.9% | viability, T/C (second compound 0.316 µM, first compound 1 µM) 76.7% | viability, T/C (second compound 1 µM, first compound 0.00316 µM) 66.6% | viability, T/C (second compound 1 µM, first compound 0.01 µM) 83% | viability, T/C (second compound 1 µM, first compound 0.0316 µM) 66.4% | viability, T/C (second compound 1 µM, first compound 0.1 µM) 61.4% | viability, T/C (second compound 1 µM, first compound 0.316 µM) 73.9% | viability, T/C (second compound 1 µM, first compound 1 µM) 68.7%

Cn1ncnc1[C@H]1c2n[nH]c(=O)c3cc(F)cc(c23)N[C@@H]1c1ccc(F)cc1
inactive: viability, T/C (compound 0.000316 µM) 96.5% and 77% and 100% | viability, T/C (compound 0.001 µM) 85.1% and 66.4% and 78.8% | viability, T/C (compound 0.00316 µM) 81.7% and 67.3% and 52.8% | viability, T/C (compound 0.01 µM) 80.5% and 61.2% and 65.7% | viability, T/C (compound 0.0316 µM) 70% and 42.6% and 64.6% | viability, T/C (compound 0.1 µM) 75.9% and 56.8% and 44%
> 100 nM and 30.7 nM: IC50 (curve of compound)

CCN1CCN(Cc2ccc(Nc3ncc(F)c(-c4cc(F)c5nc(C)n(C(C)C)c5c4)n3)nc2)CC1 + CCN1C(C(=O)NC23CCC(C(=O)O)(CC2)CC3)C(c2cccc(Cl)c2F)C2(C(=O)Nc3cc(Cl)ccc32)C12CCCCC2
inactive: viability, T/C (second compound 0.03 µM, first compound 0.00316 µM) 107% | viability, T/C (second compound 0.03 µM, first compound 0.01 µM) 109% | viability, T/C (second compound 0.03 µM, first compound 0.0316 µM) 88.7% | viability, T/C (second compound 0.03 µM, first compound 0.1 µM) 75.3% | viability, T/C (second compound 0.03 µM, first compound 0.316 µM) 64.5% | viability, T/C (second compound 0.03 µM, first compound 1 µM) 72.6% | viability, T/C (second compound 0.0949 µM, first compound 0.00316 µM) 98.1% | viability, T/C (second compound 0.0949 µM, first compound 0.01 µM) 111% | viability, T/C (second compound 0.0949 µM, first compound 0.0316 µM) 104% | viability, T/C (second compound 0.0949 µM, first compound 0.1 µM) 106% | viability, T/C (second compound 0.0949 µM, first compound 0.316 µM) 73.9% | viability, T/C (second compound 0.0949 µM, first compound 1 µM) 77% | viability, T/C (second compound 0.3 µM, first compound 0.00316 µM) 113% | viability, T/C (second compound 0.3 µM, first compound 0.01 µM) 93.9% | viability, T/C (second compound 0.3 µM, first compound 0.0316 µM) 87.1% | viability, T/C (second compound 0.3 µM, first compound 0.1 µM) 103% | viability, T/C (second compound 0.3 µM, first compound 0.316 µM) 115% | viability, T/C (second compound 0.3 µM, first compound 1 µM) 90.1% | viability, T/C (second compound 0.949 µM, first compound 0.00316 µM) 105% | viability, T/C (second compound 0.949 µM, first compound 0.01 µM) 91.6% | viability, T/C (second compound 0.949 µM, first compound 0.0316 µM) 92.1% | viability, T/C (second compound 0.949 µM, first compound 0.1 µM) 92.3% | viability, T/C (second compound 0.949 µM, first compound 0.316 µM) 90.2% | viability, T/C (second compound 0.949 µM, first compound 1 µM) 91.4% | viability, T/C (second compound 3 µM, first compound 0.00316 µM) 107% | viability, T/C (second compound 3 µM, first compound 0.01 µM) 92% | viability, T/C (second compound 3 µM, first compound 0.0316 µM) 91.9% | viability, T/C (second compound 3 µM, first compound 0.1 µM) 76.5% | viability, T/C (second compound 3 µM, first compound 0.316 µM) 89.3% | viability, T/C (second compound 3 µM, first compound 1 µM) 85.7%
> 1000 nM: IC50 (curve of first compound, second compound 0.03 µM) | IC50 (curve of first compound, second compound 0.0949 µM) | IC50 (curve of first compound, second compound 0.3 µM) | IC50 (curve of first compound, second compound 0.949 µM) | IC50 (curve of first compound, second compound 3 µM)
